Assay results: patent US8044075B2, “IL-8 receptor antagonists” (GlaxoSmithKline, priority 2006, dated 2011)

test system: Primary human neutrophils; experiment: Neutrophil chemotaxis assay (IL-8 or GRO-α as chemoattractant); format: cell-based; details: 0.75 h, IL-8 or GRO-α at EC80, 45 minutes, span over all compounds tested, units (nM, uM) given within the value, read-out: IC50 range of the compounds tested, neutrophil chemotaxis
Procedure: The in vitro inhibitory properties of these compounds were determined in a neutrophil chemotaxis assay. Primary human neutrophils were isolated from peripheral whole blood using percoll discontinuous gradient centrifugation, dextran sedimentation and hypotonic lysis. The chemoattractants IL-8 (CXCL8) or GRO-α (CXCL1) were placed in the bottom chamber of a 96 multi-well chamber (ChemoTx System, Neuro Probe, Gaithersburg, Md.). The agonist concentration used was an EC80 concentration. The two chambers are separated by a 5 um polycarbonate membrane. When compounds of this invention were tested, they were preincubated with the cells prior to placement on the top of the filter. Chemotaxis was allowed to proceed for 45 minutes in a humidified incubator at 37° C. with 5% CO2. At the end of the incubation period, the membrane was removed and the migrated cells in the bottom chamber were transferred to a 96-well plate. These cells were measured using a luminescent cell viability assay (Celltiter-Glo, Promega, Madison, Wis.). Each sample was tested in duplicate and each compound repeated at least three times. Positive control cells were cells without compound added and represent the maximum chemotactic response. The negative control (unstimulated) was with no chemokine added to the bottom chamber. The difference between the positive control and the negative control represents the chemotactic activity of the cells.

| Structure (SMILES) | IC50 [nM] |
| --- | --- |
| CCNS(=O)(=O)c1cc(F)c(F)c(C(=O)Nc2nnc(-c3ccc(F)cc3)s2)c1 [Example 6, 5-[(ethylamino)sulfonyl]-2,3-difluoro-N-[5-(4-fluorophenyl)-1,3,4-thiadiazol-2-yl]benzamide] | 63 to 8000 |
| O=C(Nc1nnc(-c2ccc(F)cc2)s1)c1cc(S(=O)(=O)Nc2ccccc2)ccc1F [Example 20, 2-fluoro-N-[5-(4-fluorophenyl)-1,3,4-thiadiazol-2-yl]-5-[(phenylamino)sulfonyl]benzamide] | 63 to 8000 |
| CCNS(=O)(=O)c1cc(F)c(Cl)c(C(=O)Nc2nnc(-c3ccc(F)cc3)s2)c1 [Example 22, 2-chloro-5-[(ethylamino)sulfonyl]-3-fluoro-N-[5-(4-fluorophenyl)-1,3,4-thiadiazol-2-yl]-benzamide] | 63 to 8000 |
| CCNS(=O)(=O)c1cc(F)c(F)c(C(=O)Nc2nnc(C(C)(C)C)s2)c1 [Example 27, N-[5-(1,1-dimethylethyl)-1,3,4-thiadiazol-2-yl]-5-[(ethylamino)sulfonyl]-2,3-difluorobcnzamidc] | 63 to 8000 |
| CCNS(=O)(=O)c1cc(F)c(F)c(C(=O)Nc2nnc(C(C)(C)c3ccccc3)s2)c1 [Example 29, 5-[(ethylamino)sulfonyl]-2,3-difluoro-N-[5-(1-methyl-1-phenylethyl)-1,3,4-thiadiazol-2-yl]benzamide] | 63 to 8000 |
| CC(C)(c1ccccc1)c1nnc(NC(=O)c2cc(S(N)(=O)=O)cc(Cl)c2Cl)s1 [Example 36, 5-(aminosulfonyl)-2,3-dichloro-N-[5-(1-methyl-1-phenylethyl)-1,3,4-thiadiazol-2-yl]benzamide] | 63 to 8000 |
| CC(C)(C)c1nnc(NC(=O)c2cc(S(N)(=O)=O)ccc2F)s1 [Example 39, 5-(aminosulfonyl)-N-[5-(1,1-dimethylethyl)-1,3,4-thiadiazol-2-yl]-2-fluorobenzamide] | 63 to 8000 |
| NS(=O)(=O)c1ccc(F)c(C(=O)Nc2nnc(-c3ccc(F)cc3)s2)c1 [Example 44, 5-(aminosulfonyl)-2-fluoro-N-[5-(4-fluorophenyl)-1,3,4-thiadiazol-2-yl] benzamide] | 63 to 8000 |
| CC(C)(c1ccccc1)c1nnc(NC(=O)c2cc(S(=O)(=O)NC3CC3)ccc2F)s1 [Example 49, 5-[(cyclopropylamino)sulfonyl]2-fluoro-N-[5-(1-methyl-1-phenylethyl)-1,3,4-thiadiazol-2-yl]benzamide] | 63 to 8000 |

Results, then the compound that gave them:

| IC50 [nM] | Structure (SMILES) |
| --- | --- |
| 63 to 8000 | CCNS(=O)(=O)c1ccc(F)c(C(=O)Nc2nnc(C(C)(C)c3ccccc3)s2)c1 [Example 1, 5-[(ethylamino)sulfonyl]-2-fluoro-N-[5-(1-methyl-1-phenylethyl)-1,3,4-thiadiazol-2-yl]benzamide] |
| 63 to 8000 | CC(C)CNS(=O)(=O)c1ccc(F)c(C(=O)Nc2nnc(-c3ccc(F)cc3)s2)c1 [Example 18, 2-fluoro-N-[5-(4-fluorophenyl)-1,3,4-thiadiazol-2-yl]-5-{[(2-methylpropyl)amino]sulfonyl}benzamide] |
| 63 to 8000 | CCNS(=O)(=O)c1ccc(F)c(C(=O)Nc2nnc(C3(C)CCCCC3)s2)c1 [Example 57, 5-[(cthylamino)sulfonyl]-2-fluoro-N-[5-(1-methylcyclohexyl)-1,3,4-thiadiazol-2-yl] benzamide] |
| 63 to 8000 | CCNS(=O)(=O)c1ccc(F)c(C(=O)Nc2nnc(C3CCCC3)s2)c1 [Example 58, N-(5-cyclopentyl-1,3,4-thiadiazol-2-yl)-5-[(ethylamino)sulfonyl]-2-fluorobenzamide] |
| 63 to 8000 | CCNS(=O)(=O)c1ccc(F)c(C(=O)Nc2nnc(C3(C)CCCC3)s2)c1 [Example 59, 5-[(ethylamino)sulfonyl]-2-fluoro-N-[5-(1-methylcyclopentyl)-1,3,4-thiadiazol-2-yl]benzamide] |
| 63 to 8000 | CCNS(=O)(=O)c1ccc(F)c(C(=O)Nc2nnc(C(C)(C)c3ccccc3F)s2)c1 [Example 63, 5-[(ethylamino)sulfonyl]-2-fluoro-N-{5-[1-(2-fluorophenyl)-1-methylethyl]-1,3,4-thiadiazol-2-yl}-benzamide] |
| 63 to 8000 | O=C(Nc1nnc(C2(c3cccc(F)c3)CCC2)s1)c1cc(S(=O)(=O)NCC(F)(F)F)ccc1F [Example 72, 2-fluoro-N-{5-[1-(3-fluorophenyl)-cyclobutyl]-1,3,4-thiadiazol-2-yl}-5-([(2,2,2-trifluoroethyl)amino]-sulfonyl}benzamide] |
| 63 to 8000 | CCNS(=O)(=O)c1ccc(F)c(C(=O)Nc2nnc(C3(c4cccc(F)c4)CCC3)s2)c1 [Example 76, 5-[(ethylamino)sulfonyl]-2-fluoro-N-{5-[1-(3-fluorophenyl)-cyclobutyl]-1,3,4-thiadiazol-2-yl}-benzamide] |
| 63 to 8000 | O=C(Nc1nnc(C2(c3cccc(F)c3)CCC2)s1)c1cc(S(=O)(=O)NCC2CC2)ccc1F [Example 77, 5-{[(cyclopropylmethyl)amino]sulfonyl}-2-fluoro-N-{5-[1-(3-fluorophenyl)-cyclobutyl]-1,3,4-thiadiazol-2-yl}-benzamide] |
| 63 to 8000 | CCNS(=O)(=O)c1ccc(F)c(C(=O)Nc2nnc(C3(c4ccccc4)CCC3)s2)c1 [Example 92, 5-[(ethylamino)sulfonyl]-2-fluoro-N-[5-(1-phenylcyclobutyl)-1,3,4-thiadiazol-2-yl]-benzamide] |

test system: GROα-induced expression of the integrin CD11b on neutrophils in human whole blood; experiment: CD11b human whole blood assay; format: cell-based; details: Neutrophil, 10 nM GROα, read-out: IC50, inhibition of GROα-induced CD11b expression
Procedure: The compounds indicated were tested for their ability to inhibit the GROα-induced expression of the integrin CD11b on neutrophils in human whole blood.
Blood was drawn (9 ml) using a butterfly line and a 10 ml syringe containing 0.2 ml of working Sodium Heparin. The blood was kept at 37° C. until placed on ice in step 5 below. Compound stock solutions were then diluted to 12 times the maximum final concentration, 120 uM. Half Log serial dilutions were then performed in vehicle. Ten microliters of the compound dilutions or vehicle were then added to the appropriate 12×75 polypropylene tubes. One hundred microliters of whole blood was added per tube and incubated for 10 minutes, in a 37° C. water bath with initial (gentle) agitation and again at 5 minutes. The GROα stock was diluted 1:166.66 in 0.1% BSA-DPBS to “12x” concentration of 120 nM and 10 ul of the GROα dilution or 0.1% BSA-DPBS was added to the appropriate tubes so that the final GROα concentration equaled 10 nM. The tubes were incubated for 10 min at 37° C. with gentle hand agitation and again at 5 minutes. Samples were then placed on ice and 250 ul of ice cold CellFix working dilution was added followed by a one minute incubation on ice. 1.5 ml Eppendorf tubes were readied during GROα incubation by adding the appropriate antibodies. Every tube received 10 ul of CD11b-FITC and 5 ul of CD 16-PE, except for the isotype control which received 10 ul of IgG2a-FITC instead of CD11b. Addition of 50 ul of the fixed blood from each tube was added to the appropriate Eppendorf tube. Samples were allowed to then incubate for 20 min at 4° C. in the dark. Addition of the blood/antibody mixtures to 500 ul of cold DPBS were added to the appropriately labeled 12×75 polystyrene tube. The resulting mixture was kept on ice. LDS stock (10 ul) was added and the mixture was incubated for 10 min at 4° C. before flow analysis. Samples were kept in a darkened environment. The LDS addition was staggered as the samples were collected on the flow cytometer so that all samples were run ˜10-20 minutes post-LDS addition. […]

| IC50 [µM] | Structure (SMILES) |
| --- | --- |
| < 5 | CCNS(=O)(=O)c1ccc(F)c(C(=O)Nc2nnc(C(C)(C)C)s2)c1 [Example 28, N-[5-(1,1-dimcthylcthyl)-1,3,4-thiadiazol-2-yl]-5-[(ethylamino)sulfonyl]-2-fluorobenzamide] |
| < 5 | CCNS(=O)(=O)c1ccc(F)c(C(=O)Nc2nnc(C3(c4ccccc4)CCCC3)s2)c1 [Example 52, 5-[(ethylamino)sulfonyl]-2-fluoro-N-[5-(1-phenylcyclopentyl)-1,3,4-thiadiazol-2-yl]benzamide] |
| < 5 | CC(C)(c1ccccc1)c1nnc(NC(=O)c2cc(S(N)(=O)=O)ccc2F)s1 [Example 61, 5-(aminosulfonyl)-2-fluoro-N-[5-(1-methyl-1-phenylethyl)-1,3,4-thiadiazol-2-yl]-benzamide] |
